Data from patent publication US11285130B2, “Treatment of mitochondrial diseases” (Khondrion IP B.V., priority 2017, dated 2022).
Where two headings read alike, the source gives them in different places.

Legend:
[1] = male, human, in vivo, 28 days
[2] = test system: primary human fibroblasts from patients with MELAS; assay: Oxidative stress-induced cell death (BSO) assay, MELAS patient fibroblasts; assay type: cell-based; conditions: Homo sapiens, Fibroblast; fibroblasts derived from MELAS patients, 100 μM BSO; unit as printed for KH176; read-out: EC50, protection from oxidative stress-induced cell death
Excerpt: To determine the effective concentration of the compounds (the concentrations that protect patient cells against oxidative stress-induced cell death) the applicant established an assay using stressed primary human fibroblasts from patients with Leigh syndrome, MELAS or LHON diseases. Utilising the inherent oxidative stress of fibroblasts from patients with mitochondrial disease, their oxidative burden was further increased by depleting cellular glutathione with an inhibitor of glutathione synthesis, L-buthionine-(S,R)-sulfoximine (BSO). […] Cells were seeded at a density of 3000 cells/well in a 96-well format and incubated with increasing concentrations of compounds in combination with BSO (100 μM, Sigma-aldrich). One day after treatment, the cells were washed twice and stained with a solution of 5 μM calcein-AM (Life technologies C3100MP) during 25 min in 199 medium without phenol red (Life technologies, 11043-023) at room temperature. After 2 washes with PBS (Phosphate buffered saline) the plate was read on a fluorescence plate reader (Fluostar Omega, BMG labtech) and the percentage of cell viability determined as a function of fluorescence intensity.

[3] = MAD study pharmacokinetic analysis; assay type: in vivo, human; conditions: for AUC / Cmax / Tmax: male, human, plasma, oral; for Cmax: read-out: Cmax (Geomean); for Tmax: read-out: tmax* (median)
Experimental: (§1) Dose escalation to the next dose level was done after evaluation of the safety and the first 24-hour pharmacokinetic results of the previous dose. […] Anticipated exposures at this starting dose were just below the Minimum Anticipated Biological Effect Level (MABEL). Placebo (an in taste and appearance matching oral liquid) was also administered orally on one occasion in the single-ascending dose part and b.i.d. for 7 Days in the MAD part. […] All samples were stored at <-70° C. until analysis. […] For mean value calculations, all values below the limit of quantification (LOQ) were set to zero. […] The non-compartmental pharmacokinetic analysis was performed using Phoenix, Version 6.3 (Pharsight Corporation, Mountain View, Calif., USA). […] The PK parameters were calculated on the basis of the actual blood sampling time points relative to dosing. Selected pharmacokinetic parameters (Cmax, tmax, t1/2, AUClast and AUC0-int) following single-dose administration and selected pharmacokinetic parameters Cmax, tmax, [NT], the accumulation factor (Racc) and time to reach steady state) following multiple dose administration were determined. In urine, the percentage of dose excreted in urine was determined for the single- and multiple-dose administration.

[4] = SAD study pharmacokinetic analysis; assay type: in vivo, human; conditions: for AUC(0-t) / Cmax / Tmax / AUC(0-inf) / half-life: male, human, plasma, oral; for AUC(0-t): read-out: AUClast (Geomean); for Cmax: read-out: Cmax (Geomean); for AUC(0-inf): read-out: AUC0-inf (Geomean)
Experimental: as §1

[5] = 100 mg, MAD, KH176 100 mg b.i.d, Day 1
[6] = 100 mg, MAD, KH176 100 mg b.i.d, Day 7
[7] = 200 mg, MAD, KH176 200 mg b.i.d, Day 1
[8] = 200 mg, MAD, KH176 200 mg b.i.d, Day 7
[9] = 400 mg, MAD, KH176 400 mg b.i.d, Day 1
[10] = 400 mg, MAD, KH176 400 mg b.i.d, Day 7
[11] = 10 mg, SAD, KH176 10 mg, fasted
[12] = 30 mg, SAD, KH176 30 mg, fasted
[13] = 100 mg, SAD, KH176 100 mg, fasted
[14] = 300 mg, SAD, KH176 300 mg, fasted
[15] = 800 mg, SAD, KH176 800 mg, fasted
[16] = 2000 mg, SAD, KH176 2000 mg, fasted

In the case of `Cc1c(C)c2c(c(C)c1O)CC[C@@](C)(C(=O)N[C@@H]1CCCNC1)O2.Cl` [KH176, (S)-6-hydroxy-2,5,7,8-tetramethyl-N-((R)-piperidin-3-yl)chroman-2-carboxamide hydrochloride], the “AEs rated mild in severity” value [1] is reported as 35, the “AEs reported by subjects in the highest dose group” value [1] is reported as 28 and the “moderate AEs” value [1] is reported as 6. The “severe AEs” value [1] was 2, the “subjects reporting AEs” value [1] was 14 subjects and the “total adverse events (AEs) reported” value [1] was 43. The EC50 [2] was 182 nM, the “Racc (accumulation ratio, Geomean)” value ([3]; MAD, KH176 100 mg b.i.d, Day 7) was 2.52 and the “Racc (accumulation ratio, Geomean)” value ([3]; MAD, KH176 200 mg b.i.d, Day 7) was 2.65. The “Racc (accumulation ratio, Geomean)” value ([3]; MAD, KH176 400 mg b.i.d, Day 7) was 2.17, the “steady concentrations reached by (first trough measurement)” value ([3]; MAD, mean trough concentration-time curves) was ≤ 4 days and the AUC ([3]; 100 mg, MAD, KH176 100 mg b.i.d, Day 1, read-out: AUCtau (Geomean)) was 1090 ng·h/mL. The Cmax [3, 5] was 184 ng/mL, the Tmax [3, 5] was 1.25 h and the AUC ([3]; 100 mg, MAD, KH176 100 mg b.i.d, Day 7, read-out: AUCtau (Geomean)) was 2760 ng·h/mL. The Cmax [3, 6] was 353 ng/mL, the Tmax [3, 6] was 1 h and the AUC ([3]; 200 mg, MAD, KH176 200 mg b.i.d, Day 1, read-out: AUCtau (Geomean)) was 2250 ng·h/mL. For the same compound, the Cmax [3, 7] was 313 ng/mL, the Tmax [3, 7] was 1.75 h and the AUC ([3]; 200 mg, MAD, KH176 200 mg b.i.d, Day 7, read-out: AUCtau (Geomean)) was 5960 ng·h/mL. For the same compound, the Cmax [3, 8] was 748 ng/mL, the Tmax [3, 8] was 2 h and the AUC ([3]; 400 mg, MAD, KH176 400 mg b.i.d, Day 1, read-out: AUCtau (Geomean)) was 6890 ng·h/mL. For the same compound, the Cmax [3, 9] was 1330 ng/mL, the Tmax [3, 9] was 1 h and the AUC ([3]; 400 mg, MAD, KH176 400 mg b.i.d, Day 7, read-out: AUCtau (Geomean)) was 14900 ng·h/mL. For the same compound, the Cmax [3, 10] was 2100 ng/mL, the Tmax [3, 10] was 1.5 h and the AUC ([3]; steady state, BID, read-out: AUCtau (one dosing interval, 12 hours), range) was 2130 to 3680 ng·h/mL. For the same compound, the “average concentrations, range” value ([3]; steady state, 100 mg BID) was 177.5 to 306.6 ng/mL, the “maximum concentration, range” value ([3]; steady state, 100 mg BID, healthy subjects) was 303 to 458 ng/mL and the “AUC0-inf ratio (fed/fasted), 90% CI” value ([4]; 100 mg, fed versus fasted) was 1.28 (90% Cl 1.12-1.45). For the same compound, the “administered dose excreted in urine as unchanged KH176” value ([4]; SAD) was “approximately 12%”, the AUC(0-t) [4, 11] was 75 ng·h/mL and the Cmax [4, 11] was 12.9 ng/mL. For the same compound, the Tmax ([4]; 10 mg, SAD, KH176 10 mg, fasted, read-out: tmax* (median)) was 1.25 h, the AUC(0-inf) [4, 12] was 474 ng·h/mL and the AUC(0-t) [4, 12] was 389 ng·h/mL. For the same compound, the Cmax [4, 12] was 56.2 ng/mL, the half-life ([4]; 30 mg, SAD, KH176 30 mg, fasted, read-out: t1/2 (Geomean) (converted)) was 10.3 h and the Tmax ([4]; 30 mg, SAD, KH176 30 mg, fasted, read-out: tmax* (median)) was 1.25 h. For the same compound, the AUC(0-inf) [4, 13] was 1540 ng·h/mL, the AUC(0-t) [4, 13] was 1310 ng·h/mL and the Cmax [4, 13] was 167 ng/mL. The half-life ([4]; 100 mg, SAD, KH176 100 mg, fasted, read-out: t1/2 (Geomean) (converted)) was 9.1 h, the Tmax ([4]; 100 mg, SAD, KH176 100 mg, fasted, read-out: tmax* (median)) was 1 h and the AUC(0-inf) ([4]; 100 mg, SAD, KH176 100 mg, fed) was 1970 ng·h/mL. It also gave an AUC(0-t) ([4]; 100 mg, SAD, KH176 100 mg, fed) of 1650 ng·h/mL, a Cmax ([4]; 100 mg, SAD, KH176 100 mg, fed) of 165 ng/mL and a half-life ([4]; 100 mg, SAD, KH176 100 mg, fed, read-out: t1/2 (Geomean) (converted)) of 9.09 h. The Tmax ([4]; 100 mg, SAD, KH176 100 mg, fed, read-out: tmax* (median)) was 2.5 h, the Tmax ([4]; 100 mg, fasted condition (100 mg), read-out: median tmax) was ~1 h and the Tmax ([4]; 100 mg, fed condition (100 mg, high calorie/high fat breakfast), read-out: median tmax) was 2.5 h. It also gave an AUC(0-inf) [4, 14] of 7500 ng·h/mL, an AUC(0-t) [4, 14] of 6320 ng·h/mL and a Cmax [4, 14] of 766 ng/mL. The half-life ([4]; 300 mg, SAD, KH176 300 mg, fasted, read-out: t1/2 (Geomean) (converted)) was 9.64 h, the Tmax ([4]; 300 mg, SAD, KH176 300 mg, fasted, read-out: tmax* (median)) was 0.992 h and the AUC(0-inf) [4, 15] was 25800 ng·h/mL. The AUC(0-t) [4, 15] was 21000 ng·h/mL, the Cmax [4, 15] was 2170 ng/mL and the half-life ([4]; 800 mg, SAD, KH176 800 mg, fasted, read-out: t1/2 (Geomean) (converted)) was 9.8 h. The Tmax ([4]; 800 mg, SAD, KH176 800 mg, fasted, read-out: tmax* (median)) was 1.5 h, the AUC(0-inf) [4, 16] was 79100 ng·h/mL and the AUC(0-t) [4, 16] was 61200 ng·h/mL. It also gave a Cmax [4, 16] of 5990 ng/mL, a half-life ([4]; 2000 mg, SAD, KH176 2000 mg, fasted, read-out: t1/2 (Geomean) (converted)) of 11.5 h and a Tmax ([4]; 2000 mg, SAD, KH176 2000 mg, fasted, read-out: tmax* (median)) of 0.75 h. It also gave a Tmax ([4]; SAD, across doses, read-out: median tmax) of 0.75 to 1.5 h, a half-life ([4]; SAD, approximate, across dose groups, read-out: t1/2 (converted)) of ~10 h and a Tmax ([4]; single- and multiple-dose administration, read-out: median tmax) of 0.75 to 2 h.
